Among the test systems are NCI-H23 lung; OVCAR-4 ovarian; RXF 393 renal; MDA-MB-231 breast; NCI/ADR-RES ovarian; RPMI-8226 leukemia; COLO 205 colon; HCT-15 colon; SK-MEL-28 melanoma; MOLT-4 leukemia; A498 renal; SK-OV-3 ovarian; IGROV1 ovarian; NCI-H226 lung; KM12 colon; MCF7 breast; CAKI-1 renal; MALME-3M melanoma.
Common to all, as to experiment: NCI-60 cell line screen, 48 h

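Cultured in 96-well plates, cells were exposed to test compound for 48 hours across five concentrations. TGI denotes the concentration required for complete inhibition of growth.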

With `O=C1CSC(c2c[nH]c3ccccc23)N1c1cccc(Cl)c1` (stereo not drawn), the TGI with NCI-H23 lung was over 100 µM; in the experiment with OVCAR-4 ovarian it was over 100 µM; with RXF 393 renal, over 100 µM; with MDA-MB-231 breast, 80.2 µM; with NCI/ADR-RES ovarian it was over 100 µM; with RPMI-8226 leukemia it was 54.7 µM. The TGI with COLO 205 colon, in the experiment on HCT-15 colon, in the experiment on SK-MEL-28 melanoma, with MOLT-4 leukemia, in the experiment on A498 renal and in the experiment with SK-OV-3 ovarian was over 100 µM throughout. Moreover, the TGI with IGROV1 ovarian, in the experiment with NCI-H226 lung, with KM12 colon and with MCF7 breast was over 100 µM each time.

For `CCCCCCCCCCCCCCCCOCC(COP(=O)(O)OCC1OC(n2cc(CC)c(=O)[nH]c2=O)CC1O)OC(=O)CCCCCCCCCCCCCCC` (stereo not drawn), the TGI in the experiment with NCI-H23 lung, in the experiment with OVCAR-4 ovarian, with RXF 393 renal, with MDA-MB-231 breast, in the experiment with NCI/ADR-RES ovarian and with RPMI-8226 leukemia was over 100 µM each time. Moreover, the TGI in the experiment with COLO 205 colon, in the experiment on HCT-15 colon, in the experiment on SK-MEL-28 melanoma, in the experiment on MOLT-4 leukemia, in the experiment on A498 renal and with SK-OV-3 ovarian was over 100 µM throughout. Also, the TGI in the experiment with IGROV1 ovarian, with NCI-H226 lung, with KM12 colon, with MCF7 breast and in the experiment on CAKI-1 renal was over 100 µM throughout.

For `CN1CCN(Cn2nc(COc3ccccc3Cl)n(/N=C/c3ccc(-c4ccc(Cl)cc4Cl)o3)c2=S)CC1`, the TGI worked out at 44.8 µM in the experiment on NCI-H23 lung; 45.2 µM with OVCAR-4 ovarian; 32 µM in the experiment on RXF 393 renal; 69.5 µM with MDA-MB-231 breast; 61.9 µM in the experiment on NCI/ADR-RES ovarian; 83.8 µM with RPMI-8226 leukemia. Further, the TGI in the experiment on HCT-15 colon is 74.3 µM; in the experiment on SK-MEL-28 melanoma, over 100 µM; in the experiment with MOLT-4 leukemia, 62.1 µM; in the experiment with A498 renal it was 54.1 µM; with SK-OV-3 ovarian it was over 100 µM; with IGROV1 ovarian it was over 100 µM. The TGI in the experiment with NCI-H226 lung was over 100 µM; in the experiment on KM12 colon, 42.1 µM; in the experiment with MCF7 breast it was 53.3 µM; with CAKI-1 renal, 50.4 µM.

For the compound `COC(=NC(C)C)NC(C)C`, the TGI with NCI-H23 lung, with MDA-MB-231 breast, in the experiment with NCI/ADR-RES ovarian, with RPMI-8226 leukemia, in the experiment with COLO 205 colon and in the experiment with HCT-15 colon was over 100 µM in each case. Further, the TGI in the experiment on SK-MEL-28 melanoma, in the experiment with MOLT-4 leukemia, in the experiment on A498 renal, in the experiment with SK-OV-3 ovarian, with IGROV1 ovarian and in the experiment with NCI-H226 lung was over 100 µM in each case. The TGI in the experiment with MCF7 breast is over 100 µM.

`CC(=O)OCC1OC(n2c3c(c(-c4ccc(C)cc4)c(C#N)c2=S)C(=O)CC(C)(C)C3)C(OC(C)=O)C(OC(C)=O)C1OC(C)=O` (stereo not drawn): the TGI in the experiment with NCI-H23 lung is over 100 µM; in the experiment on MALME-3M melanoma, over 100 µM; in the experiment with RXF 393 renal, 92.2 µM; in the experiment on MDA-MB-231 breast, 62.1 µM; in the experiment with NCI/ADR-RES ovarian it was over 100 µM; in the experiment with RPMI-8226 leukemia it was over 100 µM. Also, the TGI in the experiment with COLO 205 colon is over 100 µM; in the experiment with SK-MEL-28 melanoma it was 66.3 µM; with MOLT-4 leukemia it was over 100 µM; with A498 renal, over 100 µM; in the experiment with IGROV1 ovarian, over 100 µM; in the experiment on NCI-H226 lung, 61.8 µM. For the same compound, the TGI in the experiment with KM12 colon, with MCF7 breast and with CAKI-1 renal was over 100 µM throughout.

Consider `C/C=C1/CC(C(=O)OC)N(C(=O)OCc2ccccc2)C1=S` (stereo not drawn), for which the TGI with NCI-H23 lung, with OVCAR-4 ovarian, with MALME-3M melanoma, in the experiment with RXF 393 renal, with MDA-MB-231 breast and with NCI/ADR-RES ovarian was over 100 µM each time. Moreover, the TGI in the experiment with RPMI-8226 leukemia, with COLO 205 colon, in the experiment on HCT-15 colon, with SK-MEL-28 melanoma, with MOLT-4 leukemia and in the experiment on A498 renal was over 100 µM each time. In addition, the TGI in the experiment on SK-OV-3 ovarian, in the experiment on IGROV1 ovarian, in the experiment on KM12 colon, with MCF7 breast and in the experiment on CAKI-1 renal was over 100 µM each time.

In the case of `CC(C)[Si](OC12CCC(CC1O)CC2CO)(C(C)C)C(C)C` (stereo not drawn), the TGI in the experiment with NCI-H23 lung turned out to be 25.4 µM; with OVCAR-4 ovarian it was 23.7 µM; in the experiment with MDA-MB-231 breast it was 45.6 µM; in the experiment with NCI/ADR-RES ovarian, 28.3 µM; in the experiment on RPMI-8226 leukemia it was 38.1 µM; in the experiment on COLO 205 colon it was 42.2 µM. The TGI in the experiment with HCT-15 colon came to 27.1 µM; in the experiment on SK-MEL-28 melanoma, 40.8 µM; in the experiment on MOLT-4 leukemia, 44.6 µM; in the experiment on A498 renal, 32 µM; in the experiment with SK-OV-3 ovarian, 27.5 µM; in the experiment on NCI-H226 lung it was 33.6 µM. For the same compound, the TGI in the experiment on KM12 colon turned out to be 25.3 µM; in the experiment with MCF7 breast, 24.4 µM; in the experiment on CAKI-1 renal, 39.3 µM.

`N=C(N)SCc1ccc2c(c1)S(=O)(=O)c1ccccc1O2`: the TGI is 43.4 µM with NCI-H23 lung; 66.9 µM with OVCAR-4 ovarian; 47.5 µM with RXF 393 renal; over 100 µM in the experiment with MDA-MB-231 breast; over 100 µM in the experiment on NCI/ADR-RES ovarian; over 100 µM with RPMI-8226 leukemia. Also, the TGI was over 100 µM with COLO 205 colon; 87.9 µM in the experiment with HCT-15 colon; 33.1 µM in the experiment on SK-MEL-28 melanoma; over 100 µM with MOLT-4 leukemia; 35.1 µM with A498 renal; 53.2 µM with SK-OV-3 ovarian. Moreover, the TGI in the experiment on IGROV1 ovarian is 31.5 µM; with NCI-H226 lung, 48.9 µM; in the experiment with KM12 colon, 32.7 µM; with MCF7 breast, 34.7 µM; with CAKI-1 renal, 51.7 µM.

Regarding `CC[C@@H]1/C=C/C=C/C[C@H](C)[C@@H](O)[C@@H](C)C(=O)[C@H](C)[C@@H](O)[C@H](C)C(=O)[C@H](C)[C@@H](O)[C@H](C)/C=C/C(=O)O[C@H]2[C@@H](C)[C@@H](CC1)O[C@@]1(CC[C@@H](C)[C@@H](CC(C)O)O1)[C@@H]2C` (stereo partly drawn), the TGI was over 25 µM with NCI-H23 lung; over 19.3 µM in the experiment on OVCAR-4 ovarian; over 24 µM with MALME-3M melanoma; 9.44 µM in the experiment with RXF 393 renal; over 17.4 µM in the experiment on MDA-MB-231 breast; over 19.1 µM in the experiment on NCI/ADR-RES ovarian. For the same compound, the TGI in the experiment on RPMI-8226 leukemia was 14.7 µM; in the experiment on COLO 205 colon it was 4.62 µM; in the experiment with HCT-15 colon, over 25 µM; in the experiment with SK-MEL-28 melanoma, over 25 µM; in the experiment with MOLT-4 leukemia, 7.65 µM; in the experiment with A498 renal, 11 µM. The TGI was over 21.3 µM with SK-OV-3 ovarian; 24.9 µM in the experiment on IGROV1 ovarian; over 21.5 µM with KM12 colon; 7.49 µM with MCF7 breast; over 25 µM in the experiment on CAKI-1 renal.

Values taken from PubChem BioAssay (NCI).
